Values quoted from earlier work, collected in patent US20200068939A1, “Nutritional compositions to increase and sustain blood ketone levels” (JHO Intellectual Property Holdings LLC, priority 2018, published 2020).

Columns and labels:
[1] = acute ingestion, 15 min to 6 hr
[2] = not given; remark: listed apart in the source

Structure (SMILES): Cn1c(=O)c2c(ncn2C)n(C)c1=O [Caffeine]
- stimulation of ketone production (2.5 mg/kg given at breakfast): +88%
- plasma free fatty acids (2.5, 5.0 mg/kg given at breakfast): raised plasma free fatty acids

Structure (SMILES): C[C@@H](O)CCOC(=O)C[C@@H](C)O [KME, (R)-3-hydroxybutyl (R)-3-hydroxybutyrate]
- bHB in short-term nutritional ketosis [1]: > 1 mM
- blood βHB concentration at the start of the OGTT ([2]; 482 mg/kg 30 min before glucose bolus): ~3 mM
- blood βHB concentration at the end of the OGTT ([2]; 482 mg/kg 30 min before glucose bolus, end of 2 h test): ~1.5 mM
- reduction in 2 h AUC for serum FFAs ([2]; 482 mg/kg, 2 h): 44%
- reduction of plasma glucose AUC ([2]; 482 mg/kg, over the 2 h period): 16%
